{"source": "patent US20050014751A1", "about": "“Use of n-acyl homoserine lactones for the treatment of insulitis” (priority 2001, published 2005)", "key": {"[1]": {"system": "delayed type hypersensitivity response to SRBCs in Balb/c mice", "assay": "Murine in vivo DTH response to SRBCs (footweight), oral OdDHL", "conditions": "Balb/c mice immunised with 5×10^6 SRBCs", "procedure": "Eight week old, female Balb/c mice were kept on a 12 hour light/dark cycle and fed food and water ad libitum. SRBCs in Alseviers solution (TCS Biologicals, SB069) were washed and centrifuged (800×g for 20 minutes at room temperature) three times with 0.9% NaCl in distilled water. Cells were counted using a haemocytometer. On day 0 animals were immunised intraperitoneally (IP) with 5×10^6 (low dose) or 5×10^8 (high dose) SRBCs in saline. On day 5, animals were challenged with 20 μl SRBCs at 5×10^9/ml in the left hind paw. The contralateral paw was injected with 20 μl saline alone. After 24 hours the animals were sacrificed with a rising concentration of CO2 and bled by cardiac puncture. The hind feet were severed at the ankle joint and weighed.\nAnimals were dosed po from day 0 to day 5 with OdDHL. OdDHL was suspended in 0.25% (wt/vol) cellosize (Boots Co. PLC, Nottingham UK) in distilled water containing 1.5% (vol/vol) Tween 80 (Registered Trade Mark, Sigma) for po dosing at 3, 10, 30 and 100 mg/kg. Animals received 0.1 ml po.\nThis manifests itself as an inflammatory response causing an increase in the size of the foot. Very little antibody is produced. OdDHL at 3, 10, 30 and 100 mg/kg caused a dose dependent increase in footweight of 37%, 60%, 100% and 93% respectively (see FIG. 5). Mice dosed with OdDHL had higher footweights when compared to vehicle dosed animals. The 30 and 100 mg/kg doses (** on graph) are significant as determined by Dunnett's multiple comparison's test after one-way analysis of variance (p<0.01). This assay is considered by the pharmaceutical industry to be […] dependent, indicating the effect of compound treatment on contra-regulating T-helper 1 lymphocytes."}, "murine splenocytes": {"system": "murine splenocytes", "assay": "ConA mitogen-stimulated proliferation of murine splenocytes", "assay_type": "cell-based, BALB/c mice", "conditions": "ConA 1 μg/ml, 100,000 spleen cells, 1 mM to 0.1 μM", "procedure": "The concanavalin A (ConA) cell proliferation assay was used to assess the effect of homoserine lactone (HSL) compounds on T-cell activation and proliferation. Proliferation was assessed by the incorporation of [^3H]-thymidine into DNA. Eight-week-old female BALB/c mice were obtained from Harlan (Bicester, Oxon, UK) and given food and water ad libitum. Splenocyte suspensions were prepared by removing the spleens and placing them into. RPMI 1640 medium. The spleens were forced through 70-μm-pore-size wire gauzes using the plunger from a 5-ml syringe to produce a single cell suspension. The cells were pelleted by centrifugation, and erythrocytes were lysed with 0.017M Tris, 0.144M ammonium chloride buffer, pH 7.2. Leucocytes were washed twice with RPMI 1640 medium with 2% (vol/vol) foetal calf serum (FCS) and resuspended in complete cell culture medium (CTCM) consisting of RPMI 1640 medium with 5% FCS, 2 mM L-glutamine, and 5×10^−5 M 2-mercaptoethanol. […] After the addition of 25 μl of MicroScint-O (Packard) to each well the filters were counted with the Packard TopCount scintillation counter. […]\n(§1) In the cell culture assays the number of cells used (mouse splenocytes and human PBMC) was initially optimised to 100,000 cells per well. The optimal dose of ConA of 1 μg/ml used in the cell proliferation assays was determined from ConA titration curves. […]"}, "human PBMC": {"system": "human PBMC", "assay": "ConA mitogen-stimulated proliferation of human PBMC", "assay_type": "cell-based", "conditions": "ConA 1 μg/ml, 100,000 PBMC", "procedure": "Blood specimens were obtained with consent from healthy human volunteers. Human peripheral blood mononuclear cells (PBMC) were isolated from heparinised whole blood by buoyant density centrifugation over Histopaque 1077 (Sigma, Poole, UK) at 600 g for 20 minutes. PBMC harvested from the ‘buffy’ layers were washed twice with RPMI 1640 medium and resuspended in CTCM. HSL compounds were tested at similar dilutions as for murine splenocytes in 200 μl of CTCM, containing 1 μg/ml of ConA and 100,000 PBMC. Human PBMC were incubated for 48 h at 37° C. in 5% CO2-air, followed by pulsing with 0.25 μCi [^3H]-thymidine (see above). After a further incubation of 24 h cells were harvested onto fibreglass filters and then counted in the presence of MicroScint-O with the Packard TopCount.\nConcanavalin induced cell proliferation of human peripheral blood mononuclear cells (PBMC) was tracked, as described in I above, by a measurement of counts per minute using the scintillation counter. The inhibitory effect of an HSL compound being tested on cell proliferation was indicated by a reduction in counts per minute. […]\nas §1"}, "NOD mice": {"system": "NOD mice", "assay": "Comparative immune toxicity assessment in NOD mice", "assay_type": "in vivo", "procedure": "The overt immune toxicity of OdDHL was investigated using the dose regime described above in Example 5 for the alleviation of insulitis or diabetes in NOD mice. […] Splenocytes from the mice were taken along the time course of treatment (3 times a week for 4 weeks) and were stained with anti-CD-3 (pan T-cell), anti-CD4 (helper T-cell), anti-CD8 (cytotoxic T-cell) and anti-CD19 (B cell) antibodies for 30 minutes on ice. Cells were washed twice in PBS/BSA and then fixed in 0.5% formaldehyde. Cell phenotypes were analysed on BD FACScan."}, "TNF-α production": {"system": "TNF-α production", "conditions": "Infection and Immunity, vol.66, no.1, January 1998; cited from earlier work"}}, "data": [{"smiles": "CCCCCCCCCC(=O)CC(=O)N[C@H]1CCOC1=O", "note": "[OdDHL, N-(3-oxododecanoyl)-L-homoserine Lactone]", "values": [{"measurement": "increase in footweight", "setting": "[1]; 3 mg/kg po day 0 to day 5, vs vehicle", "value": 37, "unit": "%"}, {"measurement": "increase in footweight", "setting": "[1]; 10 mg/kg po day 0 to day 5, vs vehicle", "value": 60, "unit": "%"}, {"measurement": "increase in footweight", "setting": "[1]; 30 mg/kg po day 0 to day 5, vs vehicle, p<0.01", "value": 100, "unit": "%"}, {"measurement": "increase in footweight", "setting": "[1]; 100 mg/kg po day 0 to day 5, vs vehicle, p<0.01", "value": 93, "unit": "%"}, {"measurement": "inhibition of splenocyte proliferation ([3H]-thymidine cpm, FIG. 6)", "setting": "murine splenocytes", "value": "inhibits splenocyte proliferation"}, {"measurement": "inhibition of proliferation of human PBMC ([3H]-thymidine cpm, FIG. 7)", "setting": "human PBMC", "value": "inhibited proliferation"}, {"measurement": "overt immune toxicity (CD3, CD4, CD8, CD19 splenocyte populations, FACScan, FIG. 12)", "setting": "NOD mice; 3 times a week for 4 weeks", "value": "lack of overt immune toxicology"}, {"measurement": "body weight gain of treated mice", "setting": "NOD mice; dose regime of Example 5, vs non-treated littermates", "value": "gained weight identically to their non-treated littermates"}, {"measurement": "inhibition of TNF-α production by LPS-stimulated adherent murine peritoneal macrophages", "setting": "TNF-α production", "value": "inhibiting"}]}]}
